Laboratory results from patent US12209075B2, “Pyridine-sulfonamide derivatives as sodium channel inhibitors” (GENENTECH, INC., priority 2018, dated 2025).
Structures can show the parent of a compound that is named as a salt.

Assays:
hNav1.7 [1] = target: T1, hNav1.7 (Homo sapiens (Human), UniProt Q15858); test: Tritiated compound binding to membranes from cells expressing hNav1.7 and the β1 subunit (Nav1.7 LBA EVO); settings: competitive binding vs [3H]compound, membranes with hNav1.7 and β1 subunit
Method: Example 64a. Tritiated Compound Binding to Membranes Isolated from Cells that Heterologously Express hNav1.7 and the β1 Subunit
Preparation of membranes containing recombinantly expressed sodium channels: Frozen recombinant cell pellets are thawed on ice and diluted to 4 times the cell pellet weight with ice cold 50 mM Tris HCl, pH 7.4 buffer. The cell suspensions are homogenized on ice using a motorized glass dounce homogeniser. Homogenates are further diluted 8.4 times with ice cold 50 mM Tris HCl, pH 7.4 buffer and then centrifuged at 200×g at 4° C. for 15 minutes. The supernatants are collected and centrifuged at 10000×g at 4° C. for 50 min. The pellets are then re-suspended in 100 mM NaCl, 20 mM Tris HCl, pH 7.4 buffer containing 1% v/v protease inhibitors (Calbiochem) and re-homogenized on ice. The homogenized membranes are then processed through a syringe equipped with a 26 gauge needle. Protein concentrations arer determined by Bradford Assay and the membranes are stored at −80° C.
Radioligand Binding Studies: Saturation experiments. A competitive NaV1.7 inhibitor having a methyl group is tritiated. Three tritiums are incorporated in place of methyl hydrogens to generate [^3H]compound. Binding of this radioligand is performed in 5 mL borosilicate glass test tubes at room temperature. Binding is initiated by adding membranes to increasing concentrations of [^3H]compound in 100 mM NaCl, 20 mM Tris HCl, pH 7.4 buffer containing 0.01% w/v bovine serum albumin (BSA) for 18 h. Non-specific binding is determined in the presence of 1 μM unlabeled compound. After 18 h, the reactants are filtered through GF/C glass fiber filters presoaked in 0.5% w/v polyethylene imine. Filters are washed with 15 mL ice cold 100 mM NaCl, 20 mM Tris HCl, pH7.4 buffer containing 0.25% BSA to separate bound from free ligand. [^3H]compound bound to filters is quantified by liquid scintillation counting.
Competitive binding experiments: Binding reactions are performed in 96-well polypropylene plates at room temperature for 18 h. In 360 μL, membranes are incubated with 100 pM [^3H]compound and increasing concentrations of Test Compound. Non-specific binding is defined in the presence of 1 μM unlabeled compound. Reactions are transferred and filtered through 96-well glass fiber/C filter plates presoaked with 0.5% polyethylene imine. The filtered reactions are washed 5 times with 200 μL ice cold buffer containing 0.25% BSA. Bound radioactivity is determined by liquid scintillation counting.
Data Analysis: For saturation experiments, non-specific binding is subtracted from total binding to provide specific binding and these values are recalculated in terms of pmol ligand bound per mg protein. Saturation curves are constructed and dissociation constants are calculated using the single site ligand binding model: Beq=(Bmax*X)/(X+Kd), where Beq is the amount of ligand bound at equilibrium, Bmax is the maximum receptor density, Kd is the dissociation constant for the ligand, and X is the free ligand concentration. For competition studies percent inhibition is determined and IC50 values are calculated using a 4 parameter logistic model (% inhibition=(A+((B−A)/(1+((x/C)^D)))) using XLfit, where A and B are the maximal and minimum inhibition respectively, C is the IC50 concentration and D is the (Hill) slope.
Example 64b. Tritiated Compound Binding to Membranes Isolated from Cells that Heterologous Express hNav1.7 and the β1 Subunit
Preparation of membranes containing recombinantly expressed sodium channels: Following the procedure described in 31a, and making modifications as required to: centrifuge supernatants at 100000×g instead of 10000×g; re-suspend pellets in a buffer containing 0.01% BSA in addition to 100 mM NaCl, 20 mM Tris HCl, pH 7.4 buffer, and 1% v/v […]; and storing membranes at −80° C. in single use aliquots instead of pooled. […]
Target sequence in this assay (Q15858 whole entry, looked up): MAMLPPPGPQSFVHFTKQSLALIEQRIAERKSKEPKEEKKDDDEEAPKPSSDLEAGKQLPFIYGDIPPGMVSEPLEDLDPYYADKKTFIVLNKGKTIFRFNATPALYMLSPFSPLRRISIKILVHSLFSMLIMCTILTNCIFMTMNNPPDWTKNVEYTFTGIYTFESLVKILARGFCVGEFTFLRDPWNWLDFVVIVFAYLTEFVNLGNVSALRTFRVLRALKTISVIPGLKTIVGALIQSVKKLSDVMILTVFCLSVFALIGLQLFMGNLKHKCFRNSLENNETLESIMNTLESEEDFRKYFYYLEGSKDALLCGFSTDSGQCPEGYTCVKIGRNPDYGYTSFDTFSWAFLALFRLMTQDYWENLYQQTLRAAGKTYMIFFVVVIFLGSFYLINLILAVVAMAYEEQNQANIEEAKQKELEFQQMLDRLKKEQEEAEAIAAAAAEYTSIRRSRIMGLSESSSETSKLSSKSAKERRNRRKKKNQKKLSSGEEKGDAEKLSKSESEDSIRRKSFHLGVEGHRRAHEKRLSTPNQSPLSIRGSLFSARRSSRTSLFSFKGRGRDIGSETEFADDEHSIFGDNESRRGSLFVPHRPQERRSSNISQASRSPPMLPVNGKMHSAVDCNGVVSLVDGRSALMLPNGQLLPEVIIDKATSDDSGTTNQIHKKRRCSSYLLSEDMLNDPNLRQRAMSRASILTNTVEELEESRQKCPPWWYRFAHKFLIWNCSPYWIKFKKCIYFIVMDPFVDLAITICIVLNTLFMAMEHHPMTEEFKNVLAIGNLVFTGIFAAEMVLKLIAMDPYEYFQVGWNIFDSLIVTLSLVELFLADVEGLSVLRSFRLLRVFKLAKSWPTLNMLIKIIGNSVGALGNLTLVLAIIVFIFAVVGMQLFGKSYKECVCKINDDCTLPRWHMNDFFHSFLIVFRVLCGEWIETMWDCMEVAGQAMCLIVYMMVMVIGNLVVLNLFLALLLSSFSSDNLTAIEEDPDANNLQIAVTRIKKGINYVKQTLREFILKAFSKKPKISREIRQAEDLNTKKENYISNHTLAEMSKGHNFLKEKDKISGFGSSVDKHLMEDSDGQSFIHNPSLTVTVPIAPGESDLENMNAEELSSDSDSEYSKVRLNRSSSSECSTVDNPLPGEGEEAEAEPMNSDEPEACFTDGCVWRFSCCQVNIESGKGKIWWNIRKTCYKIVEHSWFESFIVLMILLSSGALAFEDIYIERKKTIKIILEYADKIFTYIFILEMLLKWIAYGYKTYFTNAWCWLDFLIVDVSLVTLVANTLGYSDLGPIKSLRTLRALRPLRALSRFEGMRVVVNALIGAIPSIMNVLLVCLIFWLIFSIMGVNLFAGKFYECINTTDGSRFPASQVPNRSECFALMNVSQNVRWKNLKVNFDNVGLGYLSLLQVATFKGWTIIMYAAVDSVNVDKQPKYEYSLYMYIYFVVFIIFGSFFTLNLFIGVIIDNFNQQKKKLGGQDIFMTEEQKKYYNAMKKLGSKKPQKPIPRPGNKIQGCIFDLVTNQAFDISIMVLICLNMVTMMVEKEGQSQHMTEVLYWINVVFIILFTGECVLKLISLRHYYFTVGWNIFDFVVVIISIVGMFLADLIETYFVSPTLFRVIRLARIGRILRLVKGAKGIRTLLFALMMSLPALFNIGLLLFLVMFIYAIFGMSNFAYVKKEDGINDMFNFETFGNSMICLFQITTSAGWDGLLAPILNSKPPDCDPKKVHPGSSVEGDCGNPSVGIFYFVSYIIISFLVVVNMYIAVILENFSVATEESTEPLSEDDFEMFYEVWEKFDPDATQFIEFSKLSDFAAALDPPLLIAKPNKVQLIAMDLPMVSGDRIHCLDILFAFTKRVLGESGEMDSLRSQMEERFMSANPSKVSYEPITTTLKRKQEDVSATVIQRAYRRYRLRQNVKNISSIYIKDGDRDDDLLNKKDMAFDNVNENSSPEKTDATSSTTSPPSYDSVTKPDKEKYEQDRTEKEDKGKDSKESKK
Target sequence in this assay (Q07699 whole entry partner, looked up): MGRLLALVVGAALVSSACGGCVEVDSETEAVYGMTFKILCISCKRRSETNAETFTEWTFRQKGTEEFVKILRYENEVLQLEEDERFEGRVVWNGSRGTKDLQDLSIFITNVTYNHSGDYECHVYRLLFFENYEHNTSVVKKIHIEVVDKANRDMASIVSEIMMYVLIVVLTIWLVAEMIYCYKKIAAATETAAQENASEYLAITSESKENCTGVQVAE

hNav1.7 [2] = target: T1, hNav1.7; test: Patch voltage clamp electrophysiology assay (EP), Syncropatch 384PE, CHO cells expressing Nav1.7; assay type: cell-based; settings: holding potential −50 mV, 7.5 min compound incubation; read-out: EP_SP hNav1.7 EVO IC50
Source text: Example 64c. Electrophysiological Assay (EP) (In Vitro Assay)
Patch voltage clamp electrophysiology allows for the direct measurement and quantification of block of voltage-gated sodium channels (NaV's), and allows the determination of the time- and voltage-dependence of block which has been interpreted as differential binding to the resting, open, and inactivated states of the sodium channel (Hille, B., Journal of General Physiology (1977), 69: 497-515).
The following voltage clamp electrophysiology studies are performed on representative compounds using cells heterologously expressing Nav1.7 or Nav1.5 channels. cDNAs for Nav1.7 (NM 002977) and Nav1.5 (AC137587) are stably expressed in Chinese Hamstr Ovary (CHO) cells and CHL (Chinese Hamster Lung) cells respectively. Sodium currents are measured in the whole-cell configuration using Syncropatch 384PE ([…], Germany). 1NPC®-384 chips with custom medium resistance and single hole mode are used. Internal solution consists of (in mM): […], 10CsCl, 20EGTA, and 10Hepes (pH adjusted to 7.2); and external solution contains (in mM): 60NMDG, 80NaCl, 4 KCl, 1MgCl2, 2CaCl2, 2D-Glucose monohydrate, 10Hepes (pH adjusted to 7.4 with NaOH).
After system flushing, testing compounds are dissolved in external solution containing 0.1% Pluronic F-127. The chip is moved into the measuring head and the instrument primes the chip with external and internal solutions. 10 μl cells are added to the chip from a cell hotel, and a negative pressure of −50 mBar is applied to form a seal. Following treatment with seal enhancer solution and wash-off with external solution, negative pressure of −250 mbar is applied for 1 second to achieve the whole-cell configuration, followed by three washing steps in external solution. 20 μl of compounds is added to 40 μl in each well (1:3 dilution of compounds), and after mixing, 20 μl is removed so the volume is retained at 40 ul. After approximately 13 minutes recordings, 20 μl/well of 2 uM TTX, or 333 uM Tetracaine (for Nav1.5) is added to achieve full block.
For voltage protocol, an holding potential of −50 mV is applied during the whole experiment. A depolarizing step is applied to −10 mV for 10 ms, followed by a hyperpolarization step to −150 mV for 20 ms to allow channel recovery from inactivation. A second depolarizing step is applied from −150 mV to −10 mV for 10 ms, where currents are measured to derive blocking effects of compounds. Inhibition is determined based on 7.5 min of compound incubation.
Target sequence in this assay (Q15858 other isoform, or with tags, fused parts or gaps): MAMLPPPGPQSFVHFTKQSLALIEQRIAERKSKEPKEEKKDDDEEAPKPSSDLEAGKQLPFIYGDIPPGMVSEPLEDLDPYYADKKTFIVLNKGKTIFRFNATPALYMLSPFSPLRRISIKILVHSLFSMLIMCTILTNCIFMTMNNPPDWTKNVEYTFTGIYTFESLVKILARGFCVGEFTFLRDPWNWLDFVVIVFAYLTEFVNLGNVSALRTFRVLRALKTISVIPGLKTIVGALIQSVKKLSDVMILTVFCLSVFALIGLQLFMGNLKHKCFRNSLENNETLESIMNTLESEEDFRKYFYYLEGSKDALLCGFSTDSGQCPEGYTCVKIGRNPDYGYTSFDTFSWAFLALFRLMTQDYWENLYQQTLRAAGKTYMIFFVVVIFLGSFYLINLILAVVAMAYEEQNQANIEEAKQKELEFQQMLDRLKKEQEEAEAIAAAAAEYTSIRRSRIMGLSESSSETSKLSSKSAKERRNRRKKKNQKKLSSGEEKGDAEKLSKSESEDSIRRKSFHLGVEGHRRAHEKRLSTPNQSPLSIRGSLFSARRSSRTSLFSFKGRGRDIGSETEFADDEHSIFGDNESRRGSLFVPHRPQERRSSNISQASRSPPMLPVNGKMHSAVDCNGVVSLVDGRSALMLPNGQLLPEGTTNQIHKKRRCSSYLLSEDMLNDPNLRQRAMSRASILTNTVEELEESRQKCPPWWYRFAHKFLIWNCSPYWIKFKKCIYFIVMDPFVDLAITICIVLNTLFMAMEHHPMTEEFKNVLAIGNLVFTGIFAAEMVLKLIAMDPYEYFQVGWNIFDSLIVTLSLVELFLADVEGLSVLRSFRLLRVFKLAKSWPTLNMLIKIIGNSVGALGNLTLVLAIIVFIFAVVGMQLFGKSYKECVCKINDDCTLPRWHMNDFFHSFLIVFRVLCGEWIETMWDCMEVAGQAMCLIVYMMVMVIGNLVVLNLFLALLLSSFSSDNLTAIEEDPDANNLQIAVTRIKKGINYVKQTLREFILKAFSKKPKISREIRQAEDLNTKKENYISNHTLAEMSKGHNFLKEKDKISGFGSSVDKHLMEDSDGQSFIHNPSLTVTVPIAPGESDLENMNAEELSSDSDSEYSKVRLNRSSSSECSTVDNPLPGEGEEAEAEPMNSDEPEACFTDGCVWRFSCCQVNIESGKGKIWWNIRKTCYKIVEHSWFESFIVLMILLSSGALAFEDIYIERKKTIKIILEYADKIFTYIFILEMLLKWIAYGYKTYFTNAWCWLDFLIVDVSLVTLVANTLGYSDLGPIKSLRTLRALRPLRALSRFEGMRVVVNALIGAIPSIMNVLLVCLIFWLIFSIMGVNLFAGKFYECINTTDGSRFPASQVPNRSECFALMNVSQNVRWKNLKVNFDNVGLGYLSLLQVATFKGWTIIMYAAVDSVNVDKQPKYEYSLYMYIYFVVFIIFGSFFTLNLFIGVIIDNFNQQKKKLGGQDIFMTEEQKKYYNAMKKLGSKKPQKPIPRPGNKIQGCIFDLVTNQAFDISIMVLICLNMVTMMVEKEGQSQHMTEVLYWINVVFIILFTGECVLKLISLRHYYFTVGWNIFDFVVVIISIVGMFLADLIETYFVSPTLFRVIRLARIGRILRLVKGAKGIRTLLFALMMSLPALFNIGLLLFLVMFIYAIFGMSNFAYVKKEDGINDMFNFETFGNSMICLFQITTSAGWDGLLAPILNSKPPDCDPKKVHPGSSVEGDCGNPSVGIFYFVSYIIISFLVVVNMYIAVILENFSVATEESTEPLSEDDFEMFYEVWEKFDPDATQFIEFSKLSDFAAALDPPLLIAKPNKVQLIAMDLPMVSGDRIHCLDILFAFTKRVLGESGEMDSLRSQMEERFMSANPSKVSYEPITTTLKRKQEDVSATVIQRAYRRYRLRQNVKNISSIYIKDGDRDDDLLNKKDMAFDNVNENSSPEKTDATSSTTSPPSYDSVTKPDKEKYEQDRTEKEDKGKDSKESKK

Molecule	IC50 (hNav1.7 [1])	IC50 (hNav1.7 [2])
Cc1nc(O[C@H]2CC[C@H](c3cc(Cl)cc(Cl)c3)C[C@@H]2N(C)C)ccc1S(=O)(=O)Nc1ccncn1 [Example 50, 6-(((1S,2S,4S)-4-(3,5-dichlorophenyl)-2-(dimethylamino)cyclohexyl)oxy)-2-methyl-N-(pyrimidin-4-yl)pyridine-3-sulfonamide]	1.12 nM	0.222 nM
O=S(=O)(Nc1ccncn1)c1ccc(N[C@H]2CC[C@H](c3cccc(OC(F)(F)F)c3)C[C@@H]2N2CCCC2)nc1 [Example 9, N-(pyrimidin-4-yl)-6-(((1S,2S,4S)-2-(pyrrolidin-1-yl)-4-(3-(trifluoromethoxy)phenyl)cyclohexyl)-amino)pyridine-3-sulfonamide formate]	4.11 nM	0.664 nM
CN(C)[C@H]1C[C@@H](c2cccc(Cl)c2)CC[C@@H]1Oc1ncc(S(=O)(=O)Nc2ccncn2)cc1Cl [Example 27, 5-Chloro-6-(((1S,2S,4S)-4-(3-chlorophenyl)-2-(dimethylamino)cyclohexyl)oxy)-N-(pyrimidin-4-yl)pyridine-3-sulfonamide]	7.12 nM	0.574 nM
CN(C)[C@H]1C[C@@H](c2cccc(OC(F)(F)F)c2)CC[C@@H]1Nc1ccc(S(=O)(=O)Nc2ccncn2)cn1 [Example 8, 6-(((1S,2S,4S)-2-(dimethylamino)-4-(3-(trifluoromethoxy)phenyl)cyclohexyl)amino)-N-(pyrimidin-4-yl)pyridine-3-sulfonamide formate]	7.12 nM	0.574 nM
6-(((1S,2S,4S)-2-(dimethylamino)-4-(6-(trifluoromethyl)pyridin-2-yl)cyclohexyl)oxy)-2-methyl-N-(pyrimidin-4-yl)pyridine-3-sulfonamide [Example 51]	0.985 nM	4.59 nM
Cc1nc(O[C@H]2CC[C@H](c3cccc(OC(F)F)c3)C[C@@H]2N(C)C)ccc1S(=O)(=O)Nc1ccncn1 [Example 52, 6-(((1S,2S,4S)-4-(3-(difluoromethoxy)phenyl)-2-(dimethylamino)cyclohexyl)oxy)-2-methyl-N-(pyrimidin-4-yl)pyridine-3-sulfonamide]	0.615 nM	
Cc1nc(O[C@H]2CC[C@H](c3cccc(C(F)(F)F)c3)C[C@@H]2N2CCOCC2)ccc1S(=O)(=O)Nc1ccncn1 [Example 55, 2-Methyl-6-(((1S,2S,4S)-2-morpholino-4-(3-(trifluoromethyl)phenyl)cyclohexyl)oxy)-N-(pyrimidin-4-yl)pyridine-3-sulfonamide]	1.72 nM	
Cc1nc(O[C@H]2CC[C@H](c3cccc(C(F)(F)F)c3)C[C@@H]2N(C)C)ccc1S(=O)(=O)Nc1ccncn1 [Example 23, 6-(((1S,2S,4S)-2-(Dimethylamino)-4-(3-(trifluoromethyl)phenyl)cyclohexyl)oxy)-2-methyl-N-(pyrimidin-4-yl)pyridine-3-sulfonamide formate]	8.3 nM	
CCc1nc(O[C@H]2CC[C@H](c3cccc(C(F)(F)F)c3)C[C@@H]2N(C)C)ccc1S(=O)(=O)Nc1ccncn1 [Example 33, 6-(((1S,2S,4S)-2-(Dimethylamino)-4-(3-(trifluoromethyl)phenyl)cyclohexyl)oxy)-2-ethyl-N-(pyrimidin-4-yl)pyridine-3-sulfonamide]	1.54 nM	
CN(C)[C@H]1C[C@@H](c2cccc(C(F)(F)F)c2)CC[C@@H]1Nc1ccc(S(=O)(=O)Nc2ccncn2)nc1 [Example 5, 5-(((1S,2S,4S)-2-(Dimethylamino)-4-(3-(trifluoromethyl)phenyl)cyclohexyl)amino)-N-(pyrimidin-4-yl)pyridine-2-sulfonamide]	66.4 nM	
O=S(=O)(Nc1ccncn1)c1cnc(O[C@H]2CC[C@H](c3cccc(C(F)(F)F)n3)C[C@@H]2N2CCCC2)c(Cl)c1 [Example 40, 5-chloro-N-(pyrimidin-4-yl)-6-(((1S,2S,4S)-2-(pyrrolidin-1-yl)-4-(6-(trifluoromethyl)pyridin-2-yl)cyclohexyl)oxy)pyridine-3-sulfonamide]	0.955 nM	
Cc1nc(O[C@H]2CC[C@H](c3cc(Cl)cc(C(F)(F)F)c3)C[C@@H]2N(C)C)ccc1S(=O)(=O)Nc1ccncn1 [Example 49, 6-(((1S,2S,4S)-4-(3-chloro-5-(trifluoromethyl)phenyl)-2-(dimethylamino)cyclohexyl)oxy)-2-methyl-N-(pyrimidin-4-yl)pyridine-3-sulfonamide]	1.2 nM	
Cc1nc(O[C@H]2CC[C@H](c3cc(Cl)ccc3Cl)C[C@@H]2N(C)C)ccc1S(=O)(=O)Nc1ccncn1 [Example 39, 6-(((1S,2S,4S)-4-(2,5-dichlorophenyl)-2-(dimethylamino)cyclohexyl)oxy)-2-methyl-N-(pyrimidin-4-yl)pyridine-3-sulfonamide formate]	0.935 nM	
O=S(=O)(Nc1ccncn1)c1ccc(N[C@H]2CC[C@H](c3cccc(C(F)(F)F)c3)C[C@@H]2N2CCCC2)nc1 [Example 16, N-(pyrimidin-4-yl)-6-(((1S,2S,4S)-2-(pyrrolidin-1-yl)-4-(3-(trifluoromethyl)phenyl)cyclohexyl)-amino)pyridine-3-sulfonamide formate]	25.1 nM	
CN(C)[C@H]1C[C@@H](c2ccc(Cl)c(C(F)(F)F)c2)CC[C@@H]1Oc1ccc(S(=O)(=O)Nc2ccncn2)cn1 [Example 12, 6-(((1S,2S,4S)-4-(4-chloro-3-(trifluoromethyl)phenyl)-2-(dimethylamino)cyclohexyl)oxy)-N-(pyrimidin-4-yl)pyridine-3-sulfonamide formate]	1.27 nM	
CN(C)[C@H]1C[C@@H](c2cccc(C(F)(F)F)c2)CC[C@@H]1Oc1ncc(S(=O)(=O)Nc2ccncn2)cc1Cl [Example 3, 5-Chloro-6-(((1S,2S,4S)-2-(dimethylamino)-4-(3-(trifluoromethyl)phenyl)cyclohexyl)oxy)-N-(pyrimidin-4-yl)pyridine-3-sulfonamide]	40 nM	
